From ChEMBL document CHEMBL5344418, “Recent developments in antimalarial activities of 4-aminoquinoline derivatives” (Eur J Med Chem, 2023)

Key:
Hemozoin [1] = experiment: Inhibition of Beta-hematin formation in Plasmodium falciparum 3D7 by spectrophotometric analysis
Hemozoin [2] = experiment: Inhibition of Beta-hematin formation in Plasmodium falciparum K1 by spectrophotometric analysis
Plasmodium falciparum [3] = experiment: Antimalarial activity against chloroquine-sensitive Plasmodium falciparum 3D7 assessed as reduction in parasite growth incubated for 36 hrs by Giemsa staining based microscopic analysis; format: functional, organism-based; details: 3D7, 36 h
[4] = Cytotoxicity against African monkey Vero cells assessed as reduction in cell viability incubated for 72 hrs by MTT assay; format: toxicity, cell-based; details: chlorocebus sabaeus
Plasmodium falciparum [5] = experiment: Antimalarial activity against chloroquine-resistant Plasmodium falciparum K1 assessed as reduction in parasite growth incubated for 72 hrs by SYBR Green staining based fluorescence analysis; format: functional, organism-based; details: K1, 72 h
[6] = Cytotoxicity against African green monkey Vero cells assessed as reduction in cell viability incubated for 72 hrs by MTT assay; format: toxicity, cell-based; details: chlorocebus sabaeus
Plasmodium falciparum [7] = experiment: Antimalarial activity against chloroquine-sensitive Plasmodium falciparum 3D7 assessed as reduction in parasite growth incubated for 72 hrs by SYBR Green staining based fluorescence analysis; format: functional, organism-based; details: 3D7, 72 h
Plasmodium falciparum [8] = experiment: Antiplasmodial activity against chloroquine-resistant Plasmodium falciparum W2 assessed as parasitic growth inhibition incubated for 72 hrs by SYBR Green staining based fluorescence analysis; format: functional, organism-based; details: W2, 72 h

Row | SMILES | IC50 (Plasmodium falciparum [5]) [nM] | CC50 at 72 h [6] [nM] | IC50 (Plasmodium falciparum [7]) [nM] | also measured
1 | Clc1ccc2c(NCCn3cncc3C3CCCC3)ccnc2c1 |  |  |  | IC50 (Hemozoin [1]): 79 nM; IC50 (Hemozoin [2]): 340 nM
2 | O=C(Cn1cc(COc2ccc(Cl)cc2)nn1)NCCNc1ccnc2cc(Cl)ccc12 |  |  |  | IC50 (Plasmodium falciparum [3]): 40 nM; CC50 at 72 h [4]: 28900 nM
3 | O=C(Cn1cc(-c2ccccc2)nn1)NCCCNc1ccnc2cc(Cl)ccc12 |  |  |  | IC50 (Plasmodium falciparum [3]): 137 nM; CC50 at 72 h [4]: 41500 nM
4 | Clc1ccc2c(NCCn3cncc3-c3ccc4c(c3)OCCO4)ccnc2c1 |  |  |  | IC50 (Hemozoin [1]): 520 nM; IC50 (Hemozoin [2]): 2400 nM
5 | CN(c1ccnc2cc(Cl)ccc12)C(Cc1ccccc1)CN1CCOCC1 (stereo not drawn) | 1380 | 33500 | 1200 | 
6 | CC(C)CC(CN1CCN(C)CC1)N(C)c1ccnc2cc(Cl)ccc12 (stereo not drawn) | 260 | 36600 | 60 | 
7 | N#Cc1ccc(-c2cncn2CCNc2ccnc3cc(Cl)ccc23)cc1 |  |  |  | IC50 (Hemozoin [1]): 5000 nM; IC50 (Hemozoin [2]): 730 nM
8 | CC(C)CC(CN1CCCCC1)N(C)c1ccnc2cc(Cl)ccc12 (stereo not drawn) | 420 |  | 150 | 
9 | COc1ccc(-c2cncn2CCNc2ccnc3cc(Cl)ccc23)cc1 |  |  |  | IC50 (Hemozoin [1]): 5000 nM; IC50 (Hemozoin [2]): 1780 nM
10 | Oc1ccc(-c2cncn2CCNc2ccnc3cc(Cl)ccc23)cc1 |  |  |  | IC50 (Hemozoin [1]): 3790 nM; IC50 (Hemozoin [2]): 5000 nM
11 | CN(CCCN1CCOCC1)c1ccnc2cc(C(F)(F)F)ccc12 | 820 | 200000 | 880 | 
12 | CCN(CC)CC(CC(C)C)N(C)c1ccnc2cc(C(F)(F)F)ccc12 (stereo not drawn) | 2500 | 52000 | 3800 | 
13 | CN(CCCN1CCCC1)c1ccnc2cc(Cl)ccc12 | 110 | 80200 | 190 | 
14 | Fc1ccc(-c2cncn2CCNc2ccnc3cc(Cl)ccc23)cc1 |  |  |  | IC50 (Hemozoin [1]): 5000 nM; IC50 (Hemozoin [2]): 3040 nM
15 | CC(C)CC(CN1CCCC1)N(C)c1ccnc2cc(C(F)(F)F)ccc12 (stereo not drawn) | 1600 | 52000 | 1240 | 
16 | Clc1ccc2c(NCCn3cncc3-c3cccc4ccccc34)ccnc2c1 |  |  |  | IC50 (Hemozoin [1]): 5000 nM; IC50 (Hemozoin [2]): 920 nM

Row | SMILES | IC50 (Plasmodium falciparum [5]) [nM] | CC50 at 72 h [6] [nM] | IC50 (Plasmodium falciparum [7]) [nM] | also measured
17 | CN(c1ccnc2cc(Cl)ccc12)C(Cc1ccccc1)CN1CCCCC1 (stereo not drawn) | 490 | 69700 | 280 | 
18 | CCN(CC)CC(Cc1ccccc1)N(C)c1ccnc2cc(Cl)ccc12 (stereo not drawn) | 330 | 79000 | 210 | 
19 | CN(c1ccnc2cc(C(F)(F)F)ccc12)C(Cc1ccccc1)CN1CCCC1 (stereo not drawn) | 1770 | 39200 | 680 | 
20 | CC(C)CC(CN1CCOCC1)N(C)c1ccnc2cc(Cl)ccc12 (stereo not drawn) | 1190 | 50800 | 1160 | 
21 | CCN(CC)CC(CC(C)C)N(C)c1ccnc2cc(Cl)ccc12 (stereo not drawn) | 540 | 60300 | 230 | 
22 | CC(C)CC(CN1CCCC1)N(C)c1ccnc2cc(Cl)ccc12 (stereo not drawn) | 180 | 47000 | 80 | 
23 | CN(CCCN1CCCC1)c1ccnc2cc(C(F)(F)F)ccc12 | 310 | 78200 | 90 | 
24 | CC(C)CC(CN1CCCCC1)N(C)c1ccnc2cc(C(F)(F)F)ccc12 (stereo not drawn) | 2040 | 42600 | 2000 | 
25 | CN(CCCN1CCCCC1)c1ccnc2cc(Cl)ccc12 | 60 | 107000 | 40 | 
26 | Clc1ccc2c(NCCn3cncc3-c3ccco3)ccnc2c1 |  |  |  | IC50 (Hemozoin [1]): 290 nM; IC50 (Hemozoin [2]): 970 nM
27 | Clc1ccc2c(NCCn3cncc3C3CCCCC3)ccnc2c1 |  |  |  | IC50 (Hemozoin [1]): 190 nM; IC50 (Hemozoin [2]): 520 nM
28 | CN(c1ccnc2cc(Cl)ccc12)C(Cc1ccccc1)CN1CCCC1 (stereo not drawn) | 100 | 57800 | 60 | 
29 | CC(C)CC(CN1CCOCC1)N(C)c1ccnc2cc(C(F)(F)F)ccc12 (stereo not drawn) | 2250 | 68600 | 2720 | 
30 | C[C@H]1[C@@H](O)O[C@@H]2O[C@@]3(C)CC[C@H]4[C@H](C)CC[C@@H]1[C@@]24OO3 [ARTENIMOL] |  |  |  | IC50 (Plasmodium falciparum [8]): 1 nM; IC50 (Plasmodium falciparum [3]): 2 nM
31 | OC(c1cc(C(F)(F)F)nc2c(C(F)(F)F)cccc12)C1CCCCN1 (stereo not drawn) [MEFLOQUINE] |  |  |  | IC50 (Plasmodium falciparum [8]): 24 nM
